Data on eleven compounds can be found in ChEMBL document CHEMBL1201862, “PubChem BioAssay data set” (2004).

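Grown in 96-well plates, cells were treated for 48 hours with each compound at five concentrations. Insufficient inhibition: endpoint recorded as highest concentration tested. GI50 is the concentration that inhibits growth by half.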 Active and inactive are the calls of the source. No stated cut-off is given here; in the data, active = GI50 up to about 1.1 µM and inactive = higher.

Among the test systems are SNB-75; SNB-19; SF-539; COLO 205; SW-620; HT-29; KM12; NCI-H522; CAKI-1; TK-10; 786-0; OVCAR-4; ACHN; OVCAR-5; U-251; SK-OV-3; DU-145; OVCAR-8; HL-60; SR.
Test in all cases: inhibition of tumour cell growth, NCI panel, 48 h

As to `C#CCn1c(=O)c2ccccc2n(CC#C)c1=O`, the GI50 in the experiment on SNB-75, in the experiment with SNB-19, with SF-539, in the experiment on COLO 205, with SW-620 and with HT-29 was > 10 µM (inactive) each time. Moreover, the GI50 in the experiment with KM12, with NCI-H522, in the experiment with CAKI-1, in the experiment on TK-10, with 786-0 and in the experiment with OVCAR-4 was > 10 µM (inactive) throughout. For the same compound, the GI50 with ACHN, in the experiment on OVCAR-5, in the experiment with U-251, in the experiment with SK-OV-3, in the experiment with DU-145 and with OVCAR-8 was > 10 µM (inactive) in each case.

Turning to `C/C(=N\NC(=S)N1CCN(c2ccccn2)CC1)c1nccs1`, the GI50 was 2.82 µM (inactive) with SNB-75; 1.58 µM (inactive) with SNB-19; 0.524 µM (active) with SF-539; < 0.0248 µM (active) in the experiment with COLO 205; 0.279 µM (active) in the experiment with SW-620; 0.335 µM (active) in the experiment on HT-29. Besides, the GI50 is 0.485 µM (active) in the experiment on KM12; 2.42 µM (inactive) in the experiment with CAKI-1; 1.91 µM (inactive) in the experiment with TK-10; 0.305 µM (active) in the experiment with 786-0; 1.03 µM (active) in the experiment with OVCAR-4; 0.355 µM (active) in the experiment on ACHN. Also, the GI50 is 0.867 µM (active) with OVCAR-5; 0.405 µM (active) in the experiment on U-251; 1.61 µM (inactive) in the experiment with SK-OV-3; 0.01 µM (active) with HL-60; 0.29 µM (active) in the experiment on DU-145; 0.258 µM (active) in the experiment on OVCAR-8.

For the compound `CC(=O)c1cccc(Nc2nc3ccccc3c3occc23)c1`, the GI50 with SNB-75 is 22.7 µM (inactive); in the experiment on SNB-19 it was 20.2 µM (inactive); in the experiment on SF-539, 15.5 µM (inactive); with COLO 205, > 100 µM (inactive); in the experiment on HT-29 it was 6.22 µM (inactive); in the experiment with KM12, 49.7 µM (inactive). Also, the GI50 is 47 µM (inactive) with SR; 32.8 µM (inactive) in the experiment on CAKI-1; 15 µM (inactive) in the experiment with TK-10; 16.7 µM (inactive) in the experiment with 786-0; 16.2 µM (inactive) in the experiment on OVCAR-4; 14.3 µM (inactive) in the experiment on ACHN. Besides, the GI50 in the experiment on OVCAR-5 is 53.6 µM (inactive); with U-251 it was 17.9 µM (inactive); with SK-OV-3 it was 17.8 µM (inactive); in the experiment with HL-60, > 100 µM (inactive); with DU-145, 33.6 µM (inactive); in the experiment with OVCAR-8 it was 20.4 µM (inactive).

Regarding `COc1c(OC)c(OC)c2c(=O)c(OC)c(-c3ccc4c(c3)OCO4)oc2c1OC`, the GI50 was 65.3 µM (inactive) in the experiment with SNB-75; > 100 µM (inactive) in the experiment on SNB-19; > 100 µM (inactive) in the experiment on SF-539; > 100 µM (inactive) with COLO 205; > 100 µM (inactive) with SW-620; > 100 µM (inactive) in the experiment with HT-29. Besides, the GI50 in the experiment with KM12, with NCI-H522, with CAKI-1, in the experiment on TK-10, with 786-0 and in the experiment with OVCAR-4 was > 100 µM (inactive) throughout. Besides, the GI50 in the experiment with ACHN was 68.7 µM (inactive); in the experiment on OVCAR-5, > 100 µM (inactive); in the experiment on U-251, > 100 µM (inactive); with SK-OV-3, > 100 µM (inactive); in the experiment with HL-60, 11.6 µM (inactive); with DU-145, > 100 µM (inactive). Also, the GI50 in the experiment on OVCAR-8 is 61 µM (inactive).

As to `CC1(C)CC[C@]2(C)[C@@H](O)C[C@]3(C)C(=CC[C@@H]4[C@@]5(C)CC[C@H](O)C(C)(C)[C@@H]5CC[C@]43C)[C@@H]2C1`, the GI50 is 61.5 µM (inactive) with SNB-19; 48.6 µM (inactive) with COLO 205; > 100 µM (inactive) in the experiment on SW-620; 39.2 µM (inactive) with HT-29; 41.4 µM (inactive) in the experiment with KM12; 25.7 µM (inactive) in the experiment on NCI-H522. For the same compound, the GI50 in the experiment with CAKI-1 is 34.5 µM (inactive); in the experiment with TK-10 it was 27.9 µM (inactive); in the experiment with 786-0, 33.3 µM (inactive); in the experiment on OVCAR-4, 97.3 µM (inactive); with ACHN, 41.4 µM (inactive); in the experiment with OVCAR-5, 97.3 µM (inactive). For the same compound, the GI50 in the experiment on U-251 is 28.7 µM (inactive); in the experiment with SK-OV-3, 14.9 µM (inactive); in the experiment with HL-60, > 100 µM (inactive); in the experiment on DU-145 it was 40.6 µM (inactive); in the experiment on OVCAR-8, 20.3 µM (inactive).

`C[C@H](CCC1=NCCN1)[C@H]1CC[C@H]2[C@@H]3CC[C@@H]4C[C@H](O)CC[C@]4(C)[C@H]3C[C@H](O)[C@]12C`: the GI50 with SNB-75 was 2.37 µM (inactive); in the experiment on SNB-19, 8.71 µM (inactive); in the experiment with SF-539, 13.2 µM (inactive); in the experiment with COLO 205, 10.2 µM (inactive); in the experiment on SW-620, 19.9 µM (inactive); with HT-29 it was 10.5 µM (inactive). Moreover, the GI50 is 11.8 µM (inactive) in the experiment with KM12; 5.75 µM (inactive) with NCI-H522; 20.4 µM (inactive) with CAKI-1; 14 µM (inactive) in the experiment on TK-10; 16.3 µM (inactive) with 786-0; 15.9 µM (inactive) with OVCAR-4. Moreover, the GI50 in the experiment on ACHN is 16.9 µM (inactive); in the experiment with OVCAR-5, 14.5 µM (inactive); with U-251, 8.11 µM (inactive); in the experiment on SK-OV-3, 18 µM (inactive); in the experiment on HL-60 it was 10.8 µM (inactive); in the experiment on DU-145, 15.6 µM (inactive). Besides, the GI50 in the experiment with OVCAR-8 is 15.5 µM (inactive).

For `Cc1ccc(S(=O)(=O)/N=C(\NN)Nc2ccc(Cl)cc2)cc1`, the GI50 was 37.8 µM (inactive) with SNB-75; > 100 µM (inactive) with SNB-19; 35.2 µM (inactive) in the experiment on SF-539; > 100 µM (inactive) with COLO 205; > 100 µM (inactive) with SW-620; > 100 µM (inactive) in the experiment on HT-29. The GI50 was > 100 µM (inactive) in the experiment with KM12; 83.9 µM (inactive) in the experiment on SR; > 100 µM (inactive) in the experiment with CAKI-1; > 100 µM (inactive) with TK-10; > 100 µM (inactive) in the experiment with 786-0; > 100 µM (inactive) in the experiment on OVCAR-4. The GI50 with ACHN, in the experiment on OVCAR-5, in the experiment on U-251, in the experiment on SK-OV-3, in the experiment on HL-60 and in the experiment with DU-145 was > 100 µM (inactive) each time. Further, the GI50 with OVCAR-8 was > 100 µM (inactive).

In the case of `CC1(C)CC(=O)C(CC2C(=O)c3ccccc3C2=O)C(=O)C1C(=O)C(=O)Nc1cccc2ccc(O)cc12` (stereo not given), the GI50 with SNB-75 was 78 µM (inactive); in the experiment on SNB-19, > 100 µM (inactive); in the experiment on SF-539 it was > 100 µM (inactive); with COLO 205, > 100 µM (inactive); in the experiment on SW-620, > 100 µM (inactive); in the experiment on HT-29, > 100 µM (inactive). Moreover, the GI50 with KM12 was > 100 µM (inactive); in the experiment on NCI-H522 it was > 100 µM (inactive); in the experiment on CAKI-1, 34.4 µM (inactive); in the experiment on TK-10, 54 µM (inactive); in the experiment on 786-0, > 100 µM (inactive); with OVCAR-4 it was 88.7 µM (inactive). For the same compound, the GI50 in the experiment on ACHN, in the experiment with OVCAR-5, in the experiment with U-251, with SK-OV-3, with HL-60 and in the experiment with DU-145 was > 100 µM (inactive) throughout. Also, the GI50 with OVCAR-8 is > 100 µM (inactive).

For `NC(=S)N/N=C(\Cc1nc2ccc(Cl)cc2nc1O)C(=O)Nc1ccc(Cl)cc1`, the GI50 in the experiment with SNB-75, with SNB-19, with SF-539, with COLO 205, in the experiment on SW-620 and in the experiment with HT-29 was > 100 µM (inactive) each time. For the same compound, the GI50 in the experiment on KM12, with NCI-H522, in the experiment on CAKI-1, in the experiment with TK-10, with 786-0 and in the experiment with OVCAR-4 was > 100 µM (inactive) in each case. Besides, the GI50 with ACHN, in the experiment with OVCAR-5, in the experiment on U-251, in the experiment with SK-OV-3, in the experiment on HL-60 and in the experiment with DU-145 was > 100 µM (inactive) throughout. Moreover, in the experiment with OVCAR-8, the GI50 is > 100 µM (inactive).

Take `CC(=O)N[C@H]1CCCC[C@@H]1OC(C)=O`: the GI50 in the experiment on SNB-75, in the experiment on COLO 205, in the experiment with SW-620, in the experiment with HT-29, with KM12 and in the experiment on NCI-H522 was > 100 µM (inactive) in each case. Moreover, the GI50 in the experiment with CAKI-1, in the experiment on TK-10, in the experiment with 786-0, in the experiment on OVCAR-4, in the experiment with ACHN and with OVCAR-5 was > 100 µM (inactive) in each case. Further, the GI50 in the experiment on U-251, in the experiment on SK-OV-3, with HL-60, in the experiment with DU-145 and in the experiment with OVCAR-8 was > 100 µM (inactive) throughout.

On to `Cc1ccc(/N=N/N(C)C(C)C(O)Cc2ccccc2)cc1` (stereo not given), for which the GI50 in the experiment with SNB-75 was 43.9 µM (inactive); in the experiment with SNB-19 it was 82.2 µM (inactive); in the experiment on COLO 205 it was 40.9 µM (inactive); in the experiment with SW-620, 64.9 µM (inactive); in the experiment on HT-29, 80.4 µM (inactive); in the experiment with KM12, 25.2 µM (inactive). Further, the GI50 with CAKI-1 was 93.8 µM (inactive); in the experiment with TK-10 it was 29 µM (inactive); in the experiment on 786-0, 59.4 µM (inactive); with OVCAR-4, > 100 µM (inactive); in the experiment on ACHN, 78.5 µM (inactive); with OVCAR-5, > 100 µM (inactive). For the same compound, the GI50 in the experiment on U-251 was 88.5 µM (inactive); in the experiment with SK-OV-3, > 100 µM (inactive); in the experiment on HL-60 it was 33.8 µM (inactive); with DU-145, 52.1 µM (inactive); in the experiment with OVCAR-8, 37.7 µM (inactive).
